Assay results as given in patent US6770652B2, “Multiple acting anti-angiogenic and cytotoxic compounds and methods for using the same” (Duquesne University of the Holy Ghost, priority 2001, dated 2004).
Where two headings read alike, the source gives them in different places.

Key:
[1] = system: chorioallantoic membrane (CAM) of 10-day old chicken embryos; assay: CAM assay (growth factor-induced angiogenesis on chorioallantoic membrane); type: in vivo; details: for IC50: Gallus gallus, read-out: CAM angiogenesis Inhibition, apparent IC50
Experimental: Human VEGF-165 and BFGF (200 ng each) were added to saturation to a microbial testing disk and placed onto the chorioallantoic membrane (CAM) of 10-day old chicken embryos. Eight hours after the growth factor treatment, unknown compounds (100 μg) were added to the same microbial testing disk. Growth factors and embryos were allowed to incubate an additional 40 hours. CAMS were removed, paraformaldehyde (4% in PBS) fixed, placed onto Petri dishes, and digital images taken at 7.5× using a dissecting microscope. A 1×1-cm grid was then added to the digital CAM images and the number of vessels within each grid counted as a measure of vascularity. […] Data were then graphed (FIG. 1) as a percent of growth factor-induced blood vessel amounts.

U251 cytotoxicity = type: cell-based; details: human, U251 cells; Table 4; read-out: U251 cytotoxicity Inhibition, apparent IC50
Flk-1 = Flk-1 (Homo sapiens, UniProt P35968); assay: Phospho-Flk1 phosphotyrosine ELISA (cytoblot) on whole U251 glioblastoma cells; Flk1 kinase inhibition; type: cell-based
Flk-1, sequence (P35968 20-1356): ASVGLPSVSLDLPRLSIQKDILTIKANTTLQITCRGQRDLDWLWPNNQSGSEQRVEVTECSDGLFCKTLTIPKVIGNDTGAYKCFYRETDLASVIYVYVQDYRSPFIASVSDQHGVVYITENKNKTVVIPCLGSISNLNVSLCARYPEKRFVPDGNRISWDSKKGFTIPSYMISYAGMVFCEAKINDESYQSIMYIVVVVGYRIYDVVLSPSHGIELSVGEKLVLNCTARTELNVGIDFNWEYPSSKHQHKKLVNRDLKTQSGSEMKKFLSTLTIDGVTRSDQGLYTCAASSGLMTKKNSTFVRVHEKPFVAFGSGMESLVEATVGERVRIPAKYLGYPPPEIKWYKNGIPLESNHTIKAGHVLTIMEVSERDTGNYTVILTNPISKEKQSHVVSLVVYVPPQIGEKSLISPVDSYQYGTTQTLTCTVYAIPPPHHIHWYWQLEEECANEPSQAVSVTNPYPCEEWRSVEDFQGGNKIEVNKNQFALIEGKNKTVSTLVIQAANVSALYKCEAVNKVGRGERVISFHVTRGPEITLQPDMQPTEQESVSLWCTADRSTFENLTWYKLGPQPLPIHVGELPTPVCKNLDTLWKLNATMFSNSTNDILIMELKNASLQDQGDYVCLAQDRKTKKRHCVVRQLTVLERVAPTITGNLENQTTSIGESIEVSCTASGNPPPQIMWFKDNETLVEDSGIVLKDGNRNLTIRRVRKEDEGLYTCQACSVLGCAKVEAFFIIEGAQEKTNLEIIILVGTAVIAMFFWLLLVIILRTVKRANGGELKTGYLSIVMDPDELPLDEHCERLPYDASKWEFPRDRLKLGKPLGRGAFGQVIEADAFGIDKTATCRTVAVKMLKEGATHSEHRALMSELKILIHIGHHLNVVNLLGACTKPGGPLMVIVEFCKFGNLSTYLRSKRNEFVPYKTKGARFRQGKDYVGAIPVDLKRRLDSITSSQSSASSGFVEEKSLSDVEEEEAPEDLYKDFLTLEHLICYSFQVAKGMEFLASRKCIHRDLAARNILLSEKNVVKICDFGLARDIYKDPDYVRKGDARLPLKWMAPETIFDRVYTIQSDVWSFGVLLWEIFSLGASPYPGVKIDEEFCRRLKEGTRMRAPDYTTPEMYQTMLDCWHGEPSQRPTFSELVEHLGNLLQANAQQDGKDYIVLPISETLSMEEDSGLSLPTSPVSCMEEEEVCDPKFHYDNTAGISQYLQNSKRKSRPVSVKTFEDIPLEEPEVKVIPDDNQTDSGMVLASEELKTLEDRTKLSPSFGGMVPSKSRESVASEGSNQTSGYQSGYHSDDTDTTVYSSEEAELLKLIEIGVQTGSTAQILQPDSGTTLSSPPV
Experimental: Reactions were stopped by the aspiration of media and the addition of phosphate buffered saline (PBS) containing 0.05% triton X-100, protease inhibitor cocktail and phosphatase inhibitor cocktail 2 (Sigma Chemical company) for 10 minutes on ice. Cells were then fixed at 60° C. for 30 minutes and then cold methanol added to the cells for five minutes to further permeabilize them for antibody penetration. Cells were blocked for one hour with 1% bovine serum albumin in PBS, washed twice in PBS, and then anti-phosphotyrosine-HRP conjugate (Oncogene Research) added at 1:250 dilution overnight. The antibody was then removed, the cells washed three times in PBS with 1% BSA and once with PBS, and luminol-peroxide reagent added (Pierce Biochemical) for 5 minutes. […] Data are graphed as a percentage of growth factor (EGF, VEGF) treated controls.

Flt-1 = Flt-1 (Homo sapiens, UniProt P17948); assay: Flt-1 kinase inhibition; type: cell-based; details: Table 4; read-out: Flt-1 kinase Inhibition, apparent IC50
Flt-1, sequence (P17948 27-1338, species assumed): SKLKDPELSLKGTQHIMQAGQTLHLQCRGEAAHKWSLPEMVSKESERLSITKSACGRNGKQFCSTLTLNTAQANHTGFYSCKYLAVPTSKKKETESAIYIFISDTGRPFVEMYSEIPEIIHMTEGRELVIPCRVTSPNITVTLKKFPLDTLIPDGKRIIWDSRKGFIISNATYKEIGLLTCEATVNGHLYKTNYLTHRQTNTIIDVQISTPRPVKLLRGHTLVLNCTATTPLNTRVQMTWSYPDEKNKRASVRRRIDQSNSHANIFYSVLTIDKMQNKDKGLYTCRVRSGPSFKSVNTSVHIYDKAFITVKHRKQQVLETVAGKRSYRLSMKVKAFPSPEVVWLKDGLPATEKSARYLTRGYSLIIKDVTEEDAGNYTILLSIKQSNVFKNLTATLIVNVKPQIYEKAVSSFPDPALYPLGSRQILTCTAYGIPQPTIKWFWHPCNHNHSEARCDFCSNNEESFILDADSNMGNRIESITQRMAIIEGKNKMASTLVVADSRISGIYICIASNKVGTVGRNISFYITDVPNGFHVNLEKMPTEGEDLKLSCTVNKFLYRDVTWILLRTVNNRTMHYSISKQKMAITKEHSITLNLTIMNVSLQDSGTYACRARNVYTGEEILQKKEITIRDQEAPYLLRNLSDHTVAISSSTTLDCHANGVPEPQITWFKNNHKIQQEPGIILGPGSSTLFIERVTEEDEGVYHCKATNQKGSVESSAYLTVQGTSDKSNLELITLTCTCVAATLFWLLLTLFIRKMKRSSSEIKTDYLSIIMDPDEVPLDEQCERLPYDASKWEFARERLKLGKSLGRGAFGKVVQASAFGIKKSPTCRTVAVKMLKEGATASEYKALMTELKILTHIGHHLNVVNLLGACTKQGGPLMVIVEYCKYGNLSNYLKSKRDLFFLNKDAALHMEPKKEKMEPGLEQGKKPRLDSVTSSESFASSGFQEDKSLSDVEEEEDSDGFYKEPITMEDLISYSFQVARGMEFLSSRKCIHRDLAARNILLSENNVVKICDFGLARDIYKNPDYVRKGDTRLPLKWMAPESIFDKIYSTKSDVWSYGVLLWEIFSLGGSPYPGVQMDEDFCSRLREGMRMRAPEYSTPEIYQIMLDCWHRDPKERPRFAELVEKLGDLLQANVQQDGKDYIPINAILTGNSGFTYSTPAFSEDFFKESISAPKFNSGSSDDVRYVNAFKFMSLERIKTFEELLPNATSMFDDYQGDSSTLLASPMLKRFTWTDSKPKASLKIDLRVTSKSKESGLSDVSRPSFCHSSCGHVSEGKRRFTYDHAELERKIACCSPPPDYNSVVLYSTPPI

[2] = Table 2, read-out: FIK1 Kinase Inhibition IC50
[3] = Table 4, U251 cells overexpress Flk1, read-out: Flk-1 kinase Inhibition, apparent IC50

SMILES	IC50 [1] [nM]	other results
Nc1nc(Nc2cccc(Br)c2)c2cc(Cc3ccc(Cl)cc3Cl)[nH]c2n1 [YJ/AG 176]	10800	
Nc1nc(Nc2cccc(Br)c2)c2cc(Cc3ccccc3Cl)[nH]c2n1 [YJ/AG 145]	1700	
Cc1cc(C)c(/C=C2\C(=O)Nc3ccccc32)[nH]1 [SU5416, reference compound]	< 100	IC50 (U251 cytotoxicity): 200 nM
Nc1nc(Nc2cccc(Br)c2)c2cc(Cc3ccc(-c4ccccc4)cc3)[nH]c2n1 [YJ/AG 154]	< 100	
Nc1nc(Nc2cccc(Br)c2)c2cc(Cc3ccccc3)[nH]c2n1 [YJ/AG 156]	< 100	IC50 (U251 cytotoxicity): 3400 nM
COc1cc(Cc2cc3c(Nc4cccc(Br)c4)nc(N)nc3[nH]2)cc(OC)c1OC [YJ/AG 177]	400	
Cc1ccccc1Cc1cc2c(Nc3cccc(Br)c3)nc(N)nc2[nH]1 [YJ/AG 168]	1200	IC50 (Flk-1; [2]): 300 nM; IC50 (Flt-1): > 50000 nM; IC50 (U251 cytotoxicity): 5000 nM
Nc1nc(Nc2cccc(Br)c2)c2cc(Cc3ccc4ccccc4c3)[nH]c2n1 [YJ/AG 146]	8900	IC50 (Flk-1; [2]): > 50000 nM; IC50 (Flk-1; [3]): > 50000 nM
Nc1nc(Nc2cccc(Br)c2)c2cc(Cc3ccc(Cl)c(Cl)c3)[nH]c2n1 [YJ/AG 148]	< 100	Toxicity remark in CAM angiogenesis column ([1]; Table 4, remark under the CAM value): (toxic)
Nc1nc(Nc2cccc(Br)c2)c2cc(Cc3cccc4ccccc34)[nH]c2n1 [YJ/AG 158]	< 100	
COc1ccc(OC)c(Cc2cc3c(Nc4cccc(Br)c4)nc(N)nc3[nH]2)c1 [YJ/AG 178]	1300	IC50 (Flk-1; [2]): 600 nM; IC50 (Flk-1; [3]): 600 nM
